Data published in PMC2651907, “ARC (NSC 188491) has identical activity to Sangivamycin (NSC 65346) including inhibition of both P-TEFb and PKC” (2009).

Each compound was assayed against T1, P-TEFb (cdk9/cyclin T1) (Homo sapiens, UniProt P50750) (assay: […]-ATP kinase assay with PDKtide, recombinant P-TEFb).
T1 construct: recombinant P-TEFb (cdk9/cyclin T1); with cyclin T1
T1 sequence (P50750 whole entry): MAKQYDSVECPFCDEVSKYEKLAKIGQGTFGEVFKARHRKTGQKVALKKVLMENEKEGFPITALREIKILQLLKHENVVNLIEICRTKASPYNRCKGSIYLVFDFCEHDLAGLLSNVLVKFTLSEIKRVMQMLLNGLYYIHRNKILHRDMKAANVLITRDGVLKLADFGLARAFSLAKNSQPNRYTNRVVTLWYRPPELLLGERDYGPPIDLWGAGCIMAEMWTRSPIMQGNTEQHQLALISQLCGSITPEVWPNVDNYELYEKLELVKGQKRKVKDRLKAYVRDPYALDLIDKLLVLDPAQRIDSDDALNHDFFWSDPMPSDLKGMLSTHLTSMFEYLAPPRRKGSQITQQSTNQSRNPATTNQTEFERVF
T1 sequence (O60563 whole entry partner): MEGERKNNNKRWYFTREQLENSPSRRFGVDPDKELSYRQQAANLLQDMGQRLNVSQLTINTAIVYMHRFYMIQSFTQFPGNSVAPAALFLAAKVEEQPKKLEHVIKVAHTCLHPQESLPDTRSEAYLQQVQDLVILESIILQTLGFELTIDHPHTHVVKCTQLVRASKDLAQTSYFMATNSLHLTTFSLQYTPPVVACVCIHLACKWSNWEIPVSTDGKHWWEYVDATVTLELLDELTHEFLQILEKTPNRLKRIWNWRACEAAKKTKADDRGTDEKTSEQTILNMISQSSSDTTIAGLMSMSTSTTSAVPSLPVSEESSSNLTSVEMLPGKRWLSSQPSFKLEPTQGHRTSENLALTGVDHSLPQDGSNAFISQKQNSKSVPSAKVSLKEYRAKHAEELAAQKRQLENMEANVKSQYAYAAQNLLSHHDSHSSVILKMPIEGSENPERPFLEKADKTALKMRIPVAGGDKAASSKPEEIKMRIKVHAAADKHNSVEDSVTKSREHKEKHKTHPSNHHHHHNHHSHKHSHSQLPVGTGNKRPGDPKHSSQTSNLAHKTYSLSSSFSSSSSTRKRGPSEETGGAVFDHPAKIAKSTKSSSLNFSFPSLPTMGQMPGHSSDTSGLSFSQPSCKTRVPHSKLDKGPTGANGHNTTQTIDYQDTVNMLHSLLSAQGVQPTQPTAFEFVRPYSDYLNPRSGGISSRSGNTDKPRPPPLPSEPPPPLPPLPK
Assay type: biochemical
In the case of `NNc1c(C(N)=O)c2c(N)ncnc2n1[C@@H]1O[C@H](CO)[C@@H](O)[C@H]1O` [ARC, 4-amino-6-hydrazino-7-β-d-ribofuranosyl-7H-pyrrolo-(2,3-d)-pyrimidine-5-carboxamide], the “32P-ATP kinase assay with PDKtide, recombinant P-TEFb” value is reported as “ARC sangivamycin and toyocamycin prevent recombinant P-TEFb from phosphorylating substrate peptide (Fig. 4E)”. `NC(=O)c1cn([C@@H]2O[C@H](CO)[C@@H](O)[C@H]2O)c2ncnc(N)c12` [sangivamycin] was tested, and the “32P-ATP kinase assay with PDKtide, recombinant P-TEFb” value was “ARC sangivamycin and toyocamycin prevent recombinant P-TEFb from phosphorylating substrate peptide (Fig. 4E)”. With `N#Cc1cn([C@@H]2O[C@H](CO)[C@@H](O)[C@H]2O)c2ncnc(N)c12` [toyocamycin] the “32P-ATP kinase assay with PDKtide, recombinant P-TEFb” value was “ARC sangivamycin and toyocamycin prevent recombinant P-TEFb from phosphorylating substrate peptide (Fig. 4E)”.
